Consider seven molecules from ChEMBL document CHEMBL1137190, “Synthesis and KCNQ2 opener activity of N-(1-benzo[1,3]dioxol-5-yl-ethyl, N-[1-(2,3-dihydro-benzofuran-5-yl)-ethyl, and N-[1-(2,3-dihydro-1H-indol-5-yl)-ethyl acrylamides” (Bioorg Med Chem Lett, 2004).

pEC50: −log10 of the molar value.

This assay deals with HEK293. The assay can be described thus: Effective concentration against whole-cell patch clamp from […] HEK293 cells. It counts as functional, cell-based, Homo sapiens. (In general: Patch clamp records ionic current or voltage across a cell membrane.)

As usually defined, the pEC50 is −log10 of the EC50, conventionally taken in molar units. Molecule `CCOC(=O)Nc1ccc(NCc2ccc(F)cc2)cc1N` [EZOGABINE] gave a negative-log EC50 (pEC50) (Homo sapiens, HEK293) of 5.89.

For `C[C@H](NC(=O)/C=C/c1ccccc1Cl)c1ccc2c(c1)OCO2` (racemic), under “hek293”, the pEC50 is 7.15.

In turn, `C[C@H](NC(=O)/C=C/c1ccccc1F)c1ccc2c(c1)N(CC1CC1)CCO2` showed a negative-log EC50 (pEC50) (Homo sapiens, HEK293) of 7.22.

For the setting “hek293”, `C[C@H](NC(=O)/C=C/c1ccccc1Cl)c1ccc2c(c1)OCO2` had a pEC50 of 7.70.

Under “Homo sapiens, HEK293”, `C[C@H](NC(=O)/C=C/c1ccccc1)c1cccc(N2CCOCC2)c1` gave a pEC50 of 5.49.

As to `C[C@H](NC(=O)/C=C/c1ccccc1F)c1ccc2c(c1)CCN2`, for the setting “Homo sapiens, HEK293”, the pEC50 is 6.37.

Consider `C[C@H](NC(=O)/C=C/c1c(F)cccc1F)c1ccc2c(c1)CCO2`, for which the pEC50 (Homo sapiens, HEK293) was 6.48.
